The record followed here is patent US20080108600A1, “Polycyclic Pyridines as Potassium Ion Channel Modulators” (Icagen, Inc., priority 2004, published 2008).

SMILES strings stand for the structures. Where “and” joins values, the source holds several entries; their conditions need not be identical. Equal values may be shown once. Where a name gives a salt, the structure may show the parent alone.

This experiment has as its target hSK2 (Homo sapiens, UniProt Q9H2S1). Briefly: 86Rb+ efflux assay for compound activity towards hSK channels. The format is cell-based. The settings on record: 86Rb+ efflux stimulated with calcium ionophore; drug 0.01 to 30 μM; read-out: hSK2 Inhibitory Activity. The procedure: 24.1 Assay for Compound Activity Towards hSK Channels
Cells expressing small conductance, calcium activated potassium channels, such as SK-like channels were loaded with ^86Rb^+ by culture in media containing ^86RbCl. Following loading, the culture media was removed and the cells were washed in EBSS to remove residual traces of ^86Rb^+. Cells were preincubated with the drug (0.01 to 30 μM in EBSS) and then ^86Rb^+ efflux was stimulated by exposing cells to EBSS solution supplemented with a calcium ionophore, such as ionomycin, in the continued presence of the drug. After a suitable efflux period, the EBSS/ionophore solution was removed from the cells and the ^86Rb^+ content was determined by Cherenkov counting (Wallac Trilux). Cells were then lysed with a SDS solution and the ^86Rb^+ content of the lysate was determined. Percent ^86Rb^+ efflux was calculated according to the following equation:
(^86Rb^+ content in EBSS/(86Rb^+ content in EBSS+^86Rb^+ content of the lysate))×100
Consider `COc1ccc(-c2ncc(Cl)s2)nc1Nc1ccc(N2CCCC2=O)cn1` [1-{6-[6-(5-Chloro-thiazol-2-yl)-3-methoxy-pyridin-2-ylamino]-pyridin-3-yl}-pyrrolidin-2-one], for which the IC50 is less than 100 nM.

For `CCOC(=O)CCc1ccc(Nc2cccc(-c3nccs3)n2)nc1` [3-[6-(6-Thiazol-2-yl-pyridin-2-ylamino)-pyridin-3-yl]-propionic acid ethyl ester], the IC50 is less than 100 nM.

For the molecule `c1ccc(CNCc2ccc(Nc3cccc(-c4nccs4)n3)nc2)cc1` [5-[(Benzylamino)methyl]-N-[6-(1,3-thiazol-2-yl)pyridin-2-yl]pyridin-2-amine dihydrochloride], the IC50 lay within 100 to 500 nM.

Turning to `COC(=O)c1ccc(Nc2cccc(-n3cccn3)n2)nc1` [6-(6-Pyrazol-1-yl-pyridin-2-ylamino)-nicotinic acid methyl ester], the IC50 is 100 to 500 nM.

Regarding `Cc1ccc(-c2cccc(-c3nc4ccc(Cl)cc4[nH]3)n2)nc1` [6′-(6-Chloro-1H-benzoimidazol-2-yl)-5-methyl-[2,2′]bipyridinyl], the IC50 was 100 to 500 nM.

Take `O=C1CCCCN1c1ccc(Nc2cccc(-n3cccn3)n2)nc1` [6′-(6-Pyrazol-1-yl-pyridin-2-ylamino)-3,4,5,6-tetrahydro-[1,3′]bipyridinyl-2-one]: the IC50 is less than 100 nM.

In the case of `CCc1cnc(-c2cccc(Nc3ccc(N4CCCCC4=O)cn3)n2)s1` [6′-[6-(5-Ethyl-thiazol-2-yl)-pyridin-2-ylamino]-3,4,5,6-tetrahydro-[1,3′]bipyridinyl-2-one], the IC50 fell in the range of 100 to 500 nM.

On to `COc1ccc(-c2cnccn2)nc1Nc1ccc(N2CCCCC2)cn1` [(3-Methoxy-6-pyrazin-2-yl-pyridin-2-yl)-(3,4,5,6-tetrahydro-2H-[1,3′]bipyridinyl-6′-yl)-amine], for which the IC50 is less than 100 nM.

Turning to `COc1ccc(-c2cnccn2)nc1Nc1ccc(N2CCN(C)CC2)cn1` [(3-Methoxy-6-pyrazin-2-yl-pyridin-2-yl)-[5-(4-methyl-piperazin-1-yl)-pyridin-2-yl]-amine], the IC50 is less than 100 nM.

`COc1ccc(-c2nccs2)nc1Nc1ccc(-c2ccccc2)cn1` [(3-Methoxy-6-thiazol-2-yl-pyridin-2-yl)-(5-phenyl-pyridin-2-yl)-amine]: the IC50 was in the range of 100 to 500 nM.

In the case of `COc1ccc(-c2nccs2)nc1Nc1ccc(N2CCNC(C)C2)cn1` (stereo not shown) [(3-Methoxy-6-thiazol-2-yl-pyridin-2-yl)-[5-(3-methyl-piperazin-1-yl)-pyridin-2-yl]-amine], the IC50 was 100 to 500 nM.

In the case of `COc1ccc(-c2nccs2)nc1Nc1ccc(N2CCCN(C)CC2)cn1` [(3-Methoxy-6-thiazol-2-yl-pyridin-2-yl)-[5-(4-methyl-[1,4]diazepan-1-yl)-pyridin-2-yl]-amine], the IC50 was in the range of 100 to 500 nM.

As for `COc1ccc(-c2nccs2)nc1Nc1ccccn1` [(3-Methoxy-6-thiazol-2-yl-pyridin-2-yl)-pyridin-2-yl-amine], the IC50 was less than 100 nM.

Turning to `Brc1ccc(Nc2cccc(-n3cccn3)n2)nc1` [(5-Bromo-pyridin-2-yl)-(6-pyrazol-1-yl-pyridin-2-yl)-amine], the IC50 was less than 100 nM.

Consider `Brc1ccc(Nc2cccc(-c3nccs3)n2)nc1` [(5-Bromo-pyridin-2-yl)-(6-thiazol-2-yl-pyridin-2-yl)-amine], for which the IC50 is less than 100 nM.

For the molecule `c1cc(Nc2nnc(C3CC3)s2)nc(-c2nccs2)c1` [(5-Cyclopropyl-[1,3,4]thiadiazol-2-yl)-(6-thiazol-2-yl-pyridin-2-yl)-amine], the IC50 fell in the range of 100 to 500 nM.

`CCc1ccc(Nc2cccc(-c3nccs3)n2)nc1` [(5-Ethyl-pyridin-2-yl)-(6-thiazol-2-yl-pyridin-2-yl)-amine]: the IC50 was less than 100 nM.

`Cc1cnn(-c2cccc(Nc3ccc(F)cn3)n2)c1` [(5-Fluoro-pyridin-2-yl)-[6-(4-methyl-pyrazol-1-yl)-pyridin-2-yl]-amine]: the IC50 was less than 100 nM.

As for `c1cc(Nc2ccc(-c3ccco3)cn2)nc(-c2cnccn2)c1` [(5-Furan-2-yl-pyridin-2-yl)-(6-pyrazin-2-yl-pyridin-2-yl)-amine], the IC50 is less than 100 nM.

For `c1cc(Nc2ccc(-c3ccco3)cn2)nc(-c2nccs2)c1` [(5-Furan-2-yl-pyridin-2-yl)-(6-thiazol-2-yl-pyridin-2-yl)-amine], the IC50 was less than 100 nM.

As to `C=C(C)c1ccc(Nc2cccc(-n3cc(C)cn3)n2)nc1` [(5-Isopropenyl-pyridin-2-yl)-[6-(4-methyl-pyrazol-1-yl)-pyridin-2-yl]-amine], the IC50 was less than 100 nM.

Take `COc1ccc(-c2cnccn2)nc1Nc1ccc(C(C)C)cn1` [(5-Isopropyl-pyridin-2-yl)-(3-methoxy-6-pyrazin-2-yl-pyridin-2-yl)-amine]: the IC50 fell in the range of 100 to 500 nM.

On to `COc1ccc(-c2nccs2)nc1Nc1ccc(C(C)C)cn1` [(5-Isopropyl-pyridin-2-yl)-(3-methoxy-6-thiazol-2-yl-pyridin-2-yl)-amine], for which the IC50 was < 100 nM and 100 to 500 nM.

In the case of `COc1ccc(-c2ccccn2)nc1Nc1ccc(C(C)C)cn1` [(5-Isopropyl-pyridin-2-yl)-(5-methoxy-[2,2′]bipyridinyl-6-yl)-amine], the IC50 is less than 100 nM.

With `Cc1cnn(-c2cccc(Nc3ccc(C(C)C)cn3)n2)c1` [(5-Isopropyl-pyridin-2-yl)-[6-(4-methyl-pyrazol-1-yl)-pyridin-2-yl]-amine], the IC50 is less than 100 nM.

Regarding `COc1ccc(-c2ccccn2)nc1Nc1ccc(N2CCCCC2)cn1` [(5-Methoxy-[2,2′]bipyridinyl-6-yl)-(3,4,5,6-tetrahydro-2H-[1,3′]bipyridinyl-6′-yl)-amine], the IC50 is less than 100 nM.

Turning to `COc1ccc(-c2ccccn2)nc1Nc1ccc(N2CCN(C)CC2)cn1` [(5-Methoxy-[2,2′]bipyridinyl-6-yl)-[5-(4-methyl-piperazin-1-yl)-pyridin-2-yl]-amine], the IC50 was less than 100 nM.

Turning to `COc1ccc(Nc2cccc(-n3cc(C)cn3)n2)nc1` [(5-Methoxy-pyridin-2-yl)-[6-(4-methyl-pyrazol-1-yl)-pyridin-2-yl]-amine], the IC50 was less than 100 nM.

For `c1ccc(-c2cc(Nc3cccc(-c4nccs4)n3)[nH]n2)cc1` [(5-Phenyl-2H-pyrazol-3-yl)-(6-thiazol-2-yl-pyridin-2-yl)-amine], the IC50 was less than 100 nM.

Take `CC(C)(C)c1ccc(Nc2cccc(-c3nccs3)n2)nc1` [(5-tert-Butyl-pyridin-2-yl)-(6-thiazol-2-yl-pyridin-2-yl)-amine]: the IC50 is 100 to 500 nM.

Consider `Fc1cccc(Nc2cccc(-c3nccs3)n2)n1` [(6-Fluoro-pyridin-2-yl)-(6-thiazol-2-yl-pyridin-2-yl)-amine], for which the IC50 lay within 500 to 1000 nM.

Turning to `c1cc(Nc2cc3ccccc3cn2)nc(-c2nccs2)c1` [Isoquinolin-3-yl-(6-thiazol-2-yl-pyridin-2-yl)-amine], the IC50 is less than 100 nM.

In the case of `COc1ccc(-c2nccs2)nc1Nc1ccc(N(C)C2CCN(C)C2)cn1` (stereo not shown) [N^2-(3-Methoxy-6-thiazol-2-yl-pyridin-2-yl)-N^5-methyl-N^5-(1-methyl-pyrrolidin-3-yl)-pyridine-2,5-diamine], the IC50 fell in the range of 100 to 500 nM.

With `COCCN(C)c1ccc(Nc2nc(-c3ncc(Cl)s3)ccc2OC)nc1` [N^2-[6-(5-Chloro-thiazol-2-yl)-3-methoxy-pyridin-2-yl]-N^5-(2-methoxy-ethyl)-N^5-methyl-pyridine-2,5-diamine], the IC50 was less than 100 nM.
